Results published in US20210401773A1 (priority 2020, published 2021).

Tested on: COVID-19
Assay: Clinical trials/studies: case reports of ye-[…] in people with COVID-19
Assay type: in vivo
Settings: case 2: taken before ye-COVIDICIN; they got worse

CCN(CCO)CCCC(C)Nc1ccnc2cc(Cl)ccc12 (stereo not shown) [Hydroxychloroquine]
Effect on COVID-19 in patient: did not work
